Experimental data as given in US20110152379A1, “COMPOSITION FOR CONTROL OF AGING AND/OR EXTENSION OF LIFE, CONTAINING DAPSONE AS ACTIVE INGREDIENT” (priority 2008, published 2011).
Values joined by “and” are separate entries in the source; they are usually repeats but may differ in a detail not shown here. Identical values can stand only once.

Experiments:
mitochondria complex V = assay: Western blot of mitochondria complex V amount in C. elegans; type: in vivo; settings: C. elegans treated with DDS; FIG. 8
Description: C. elegans was isolated and collected by using dense sucrose (Centrifugation) and was washed with S buffer solution to remove a contaminant. In order to isolate mitochondria, C. elegans was twice homogenized in MSM buffer solution (220 mM mannitol, 10 mM sucrose, 5 mM MOPS, pH 7.4, with KOH) containing 0.2% of BSA at 5000 rpm for 20 seconds by using Precellys24 Homogenizer (Medinova) and Glass bead. The residue and non-homogenized C. elegans were removed fro the homogenized C. elegans through a centrifuge (380 g, 5 min) by using MSM buffer solution. The precipitate of homogenous substance that was centrifuged at 4500 g for 5 minutes, i.e., mitochondria were prepared. The rest was prepared as a part of cytoplasm. […] The quantitation of protein was performed by using BCA protein detection kit (Pierce).
The lysates of C. elegans grown under appropriate condition (containing PABA alone or PABA and dapsone) were prepared. […] After transferring to a nitrocellulose, they were analyzed by using Western Blot using MS601 (subunit α of F1 of ATP synthase, Oxphos Complexes detection kit, Mitoscience, 1:1,000) and α-Tubulin (Sigma; 1:2,000) antibody. The result was detected by using ECL (Pierce) and a horseradish peroxidase-conjugated secondary antibody.

NOX4 = NOX4 mRNA level by RT-PCR in PQ-treated human diploid fibroblast; type: cell-based; settings: 1 mM PQ for 5 minutes, FIG. 26
Description: The amount of NOX4 (HDF specific) mRNA, which is a source for generating a cytosolic superoxide anion, increased by PQ was measured. For FIG. 26B, it was quantitived as % rate as compared with a control (non-treated human diploid fibroblast).
RNA of the human diploid fibroblast was isolated by using Trizol Reagent (MRC Cincinnati, USA), and NOX4 and GAPDH were measured through RT-PCR by using Biometra T Gradient PCR (Biometra, Goettingen, Germany) machine. A specific NOX primer; 5′-[…]-3′ (Forward Primer) and 5′-[…]-3′ (Reverse Primer); Primer for GAPDH 5′-[…]-3′ (Forward Primer) and 5′-[…]-3′ (Reverse Primer) were used as primers. DNA that was manipulated by PCR was isolated through 1.2% agarose gel electrophoresis, stained with EtBr to be visualized and then taken a photography that can be shown through UV.

C. elegans [1] = assay: Chemiluminescent of lipofuscin in small intestine of worm; type: in vivo; settings: fed on DDS during the whole life and after the adolescence; FIG. 5
Description: The chemiluminescent of C. elegans was taken a photograph by exposing for 800 msec through 525 nm Band-Pass Filter. The size of each photograph was only adjusted by using Adobe Photoshop CS2. For measuring the amount of Chemiluminescent in a small intestine, the brightness of pixels in a certain region was measured by Image J 1.35. At least 30 of C. elegans were measured every day and then the mean and standard error were calculated.

pyruvate kinase = assay: Pyruvate kinase activity in vivo (worms that fed on DDS); parameters: species or system C. elegans; settings: FIG. 16B
Description: PK activity was analyzed through the decrease degree of absorbance at 340 nm by using the change result from pyruvate and NADH to lactate and NAD by lactate dehydrogenase (LDH). The pyruvate and ATP used for the above process were produced from phosphoenolpyruvate (PEP) and ADP by PK. The analysis in vitro was measured by adding directly DDS along with PK to the above reaction mixture and the analysis in vivo was measured by adding worms that fed on DDS.
Samples were homogenized by rupturing C. elegans with glass bead Precellys 24 homogenizer, twice for 20 seconds, at 5000 rpm in a 100 mM potassium phosphate buffer, pH 7.6, at 37° C. A CHAPS was added to the homogenized sample to be 1% of the final concentration and then centrifuged at 15000 g for 20 minutes. The measurement of pyruvate kinase(PK) activity was performed at 37° C. by adding 300 uL of the reaction mixture contained 100 mM potassium phosphate buffer at pH 7.6 and 37° C., 100 mM MgSO4, 1.3 mM β-NADH, 5000 units/mL of lactate dehydrogenase (LDH), 2 mM adenosine diphosphate (ADP) and 17 mM phosphoenolpyruvate (PEP) into the sample. The change of oxidation degree of NADH was measured at 340 nm of absorbance. PK 1 unit was defined as the change into 1.0 umole of pyruvate per a minute at pH 7.6 and 37° C. […] Type I pyruvate kinase (Sigma) of rabbit muscle was used for in vitro experiment.

autophagy = assay: Autophagy genes RT-PCR and GFP::lgg-1 immune blot in C. elegans; type: in vivo; settings: after treating with DDS
Description: All the results are summarized from three independent experiments.
Total RNA was isolated by using TRI reagent available from MRC Company and first cDNA strain was synthesized by using Oligo-dT and Superscript II Reverse Transcriptase (available from Invitrogen Company). The gene amplification (PCR) was performed by using PCR Master Mix (Genenmed) and as the base sequence of the primer, ceDuox1; 5′-[…]-3′ (Forward Primer) and 5′-[…]-3′ (Reverse Primer), actin 5′-[…]-3′ (Forward Primer) and 5′-[…]-3′ (Reverse Primer) were used.
In addition, the gene related to the autophagy used the primer as follows: […]

C. elegans [2] = assay: Lifespan of C. elegans fed on E. coli cultured with dapsone; type: in vivo, Caenorhabditis elegans; parameters: Mean lifespan (Mean ± SE): unit not given beside the values
Description: In order to identify the effect of dapsone on the extending of lifespan, the experiment was performed in the following order. At this time, since dapsone is not a water-soluble material, E. coli was cultured in the medium including dapsone and then was used as a feed for C. elegans. […] generation, and the experiment was performed as follows under the condition of 20° C. in order to provide the optimal growth environment: 1) A parent C. elegans of L4 stage was transferred to the medium containing dapsone and PABA, and the progeny of first generation was transferred to the new medium after four days to lay an egg for 4 to 5 hours. […] C. elegans, which […], was excluded from the statistical analysis. […] The significant difference of statistical average lifespan used Log-rank test.

## Nc1ccc(S(=O)(=O)c2ccc(N)cc2)cc1 [DDS, 4,4′-diaminodiphenylsulfone]
Mitochondria complex V
  amount of complex V: significantly decreased
NOX4
  NOX4 expression increased by PQ: decreases
C. elegans [1]
  generation of lipofuscin: delayed for several days
Pyruvate kinase
  biochemical activity of PK in vivo: suppresses
autophagy; RT-PCR, FIG. 21A
  genes relevant to the autophagy, transcription level: not changed
autophagy; immune blot, FIG. 21B
  LGG-1 marker protein of the autophagy: not increased
C. elegans [2]; DDS after L4-stage and during the whole life, FIG. 3A, B
  average lifespan and maximum lifespan compared with the control: significantly increased
C. elegans [2]; strain N2, OP50 + PABA + DDS (2 mM) after L4 stage, Figure 1B, four trials
  Mean lifespan (Mean ± SE): 23.04 ± 0.7 and 34.26 ± 0.8 and 23.76 ± 0.6 and 18.87 ± 0.4
C. elegans [2]; strain N2, OP50 + PABA + DDS (2 mM) in the whole life, Figure 1A, two trials
  Mean lifespan (Mean ± SE): 23.07 ± 0.5 and 24.31 ± 0.6
C. elegans [2]; strain N2, OP50 + PABA + DDS, Figure 3F, two trials
  Mean lifespan (Mean ± SE): 23.72 ± 0.7 and 19.74 ± 0.6
C. elegans [2]; strain N2, feeding OP50 + 0.5 mM DDS, Figure S7
  Mean lifespan (Mean ± SE): 22.03 ± 0.6
C. elegans [2]; strain N2, feeding OP50 + 1 mM DDS, Figure S7
  Mean lifespan (Mean ± SE): 22.20 ± 0.6
C. elegans [2]; strain N2, feeding folP + DDS (bacteria lacking folP), Figure S2, three trials
  Mean lifespan (Mean ± SE): 16.90 ± 0.3 and 17.43 ± 0.4 and 17.87 ± 0.4
C. elegans [2]; strain daf-16(cf1038), OP50 + PABA + DDS (2 mM), Figure 2A, two trials
  Mean lifespan (Mean ± SE): 15.69 ± 0.5 and 17.40 ± 0.3
C. elegans [2]; strain pyk-1(ok1754), OP50 + PABA + DDS, Figure 3F, two trials
  Mean lifespan (Mean ± SE): 21.92 ± 0.8 and 23.37 ± 0.6
